Source: patent US20140243334A1, “SUBSTITUTED HYDOXAMIC ACIDS AND USES THEREOF” (Millennium Pharmaceuticals, Inc., priority 2010, published 2014)

Biological target: T1, purified human HDAC6 (Homo sapiens, UniProt Q9UBN7)
T1 construct: purchased BPS Bioscience 5006
T1 sequence (Q9UBN7 1-1215): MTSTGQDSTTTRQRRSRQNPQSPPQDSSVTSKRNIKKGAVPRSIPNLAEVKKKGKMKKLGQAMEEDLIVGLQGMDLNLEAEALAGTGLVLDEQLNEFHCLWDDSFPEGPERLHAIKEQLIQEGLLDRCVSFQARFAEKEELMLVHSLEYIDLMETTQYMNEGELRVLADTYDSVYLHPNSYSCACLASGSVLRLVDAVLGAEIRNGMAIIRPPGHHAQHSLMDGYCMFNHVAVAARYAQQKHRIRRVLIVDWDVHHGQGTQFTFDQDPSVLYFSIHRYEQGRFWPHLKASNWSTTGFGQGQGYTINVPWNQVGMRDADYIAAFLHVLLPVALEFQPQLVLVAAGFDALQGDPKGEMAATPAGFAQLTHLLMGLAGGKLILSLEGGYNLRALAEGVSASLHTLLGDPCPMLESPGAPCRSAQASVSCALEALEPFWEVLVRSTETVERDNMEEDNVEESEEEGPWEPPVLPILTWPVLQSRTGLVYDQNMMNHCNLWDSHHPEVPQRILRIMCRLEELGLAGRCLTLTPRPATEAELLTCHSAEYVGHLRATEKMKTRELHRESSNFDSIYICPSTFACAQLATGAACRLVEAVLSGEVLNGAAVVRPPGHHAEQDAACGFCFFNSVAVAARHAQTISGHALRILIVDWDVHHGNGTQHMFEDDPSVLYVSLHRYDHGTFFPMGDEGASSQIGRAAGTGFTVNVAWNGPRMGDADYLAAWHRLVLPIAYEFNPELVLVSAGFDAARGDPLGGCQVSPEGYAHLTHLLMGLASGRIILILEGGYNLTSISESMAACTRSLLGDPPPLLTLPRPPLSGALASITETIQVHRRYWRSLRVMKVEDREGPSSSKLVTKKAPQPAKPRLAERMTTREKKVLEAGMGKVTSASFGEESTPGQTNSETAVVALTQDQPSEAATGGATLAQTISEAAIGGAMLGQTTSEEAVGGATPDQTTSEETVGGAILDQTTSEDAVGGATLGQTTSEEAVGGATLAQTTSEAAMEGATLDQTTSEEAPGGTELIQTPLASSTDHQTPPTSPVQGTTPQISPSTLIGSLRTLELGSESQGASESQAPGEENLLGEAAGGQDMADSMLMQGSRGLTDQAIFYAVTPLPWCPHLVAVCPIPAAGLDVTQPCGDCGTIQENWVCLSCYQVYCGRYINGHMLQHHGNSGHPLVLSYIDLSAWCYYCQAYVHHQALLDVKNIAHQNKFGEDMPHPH
Assay: HDAC6 Enzyme Assay
Assay type: biochemical
Conditions: HDAC6 inhibition at a compound concentration of 0.412 μM; read-out: Percent Inhibition at 0.412 μM

SMILES | inhibition at 0.412 µM [%]
O=C(NO)C1CCc2ccc(Oc3ccccc3)cc2C1 (centres unmarked) [Compound I-8, N-hydroxy-7-phenoxy-1,2,3,4-tetrahydronaphthalene-2-carboxamide] | 73
CN(C)c1ccc(-c2ccc3c(c2)CC(C(=O)NO)CC3)cc1 (centres unmarked) [Compound I-92, 7-[4-(dimethylamino)phenyl]-N-hydroxy-1,2,3,4-tetrahydronaphthalene-2-carboxamide] | 67
O=C(NC1CC1)c1cccc(Oc2ccc3c(c2)CC(C(=O)NO)CC3)c1 (centres unmarked) [Compound I-43, 7-{3-[(cyclopropylamino)carbonyl]phenoxy}-N-hydroxy-1,2,3,4-tetrahydronaphthalene-2-carboxamide] | 19
COc1ccc2c(c1)CCC(C(=O)NO)C2 (centres unmarked) [Compound I-10, N-hydroxy-6-methoxy-1,2,3,4-tetrahydronaphthalene-2-carboxamide] | 32
O=C(NO)C1CCc2ccc(-c3cccc(-c4ccccc4)c3)cc2C1 (centres unmarked) [Compound I-110, 7-biphenyl-3-yl-N-hydroxy-1,2,3,4-tetrahydronaphthalene-2-carboxamide] | 83
O=C(NO)C1CCc2ccc(-c3cccnc3)cc2C1 (centres unmarked) [Compound I-60, N-hydroxy-7-pyridin-3-yl-1,2,3,4-tetrahydronaphthalene-2-carboxamide] | 75
CN(C)S(=O)(=O)c1cccc(-c2ccc3c(c2)CC(C(=O)NO)CC3)c1 (centres unmarked) [Compound I-93, 7-{3-[(dimethylamino)sulfonyl]phenyl}-N-hydroxy-1,2,3,4-tetrahydronaphthalene-2-carboxamide] | 79
O=C(NO)C1CCc2ccc(-c3cccc(NC(=O)C4CC4)c3)cc2C1 (centres unmarked) [Compound I-64, 7-{3-[(cyclopropylcarbonyl)amino]phenyl}-N-hydroxy-1,2,3,4-tetrahydronaphthalene-2-carboxamide] | 90
O=C(NO)C1CCc2ccc(Oc3ccc(NCc4ccc(Cl)cc4)cc3)cc2C1 (centres unmarked) [Compound I-73, 7-{4-[(4-chlorobenzyl)amino]phenoxy}-N-hydroxy-1,2,3,4-tetrahydronaphthalene-2-carboxamide] | 64
O=C(NO)C1CCc2ccc(Nc3ccccc3)cc2C1 (centres unmarked) [Compound I-23, 7-anilino-N-hydroxy-1,2,3,4-tetrahydronaphthalene-2-carboxamide] | 70
O=C(NO)C1CCc2ccc(OCc3ccncc3)cc2C1 (centres unmarked) [Compound I-5, N-hydroxy-7-(pyridin-4-ylmethoxy)-1,2,3,4-tetrahydronaphthalene-2-carboxamide] | 58
O=C(NO)C1CCc2ccc(-c3cc4ccccc4[nH]3)cc2C1 (centres unmarked) [Compound I-54, N-hydroxy-7-(1H-indol-2-yl)-1,2,3,4-tetrahydronaphthalene-2-carboxamide] | 82
O=C(NO)C1CCc2ccc(NS(=O)(=O)c3ccccc3)cc2C1 (centres unmarked) [Compound I-28, N-hydroxy-7-[(phenylsulfonyl)amino]-1,2,3,4-tetrahydronaphthalene-2-carboxamide] | 65
CNC(=O)Nc1cccc(Oc2ccc3c(c2)CC(C(=O)NO)CC3)c1 (centres unmarked) [Compound I-57, N-hydroxy-7-(3-{[(methylamino)carbonyl]amino}phenoxy)-1,2,3,4-tetrahydronaphthalene-2-carboxamide] | 73
O=C(NO)C1CCc2ccc(-c3c[nH]c4ccccc34)cc2C1 (centres unmarked) [Compound I-82, N-hydroxy-7-(1H-indol-3-yl)-1,2,3,4-tetrahydronaphthalene-2-carboxamide] | 83
CC(C)(C)C(=O)Nc1cccc(-c2ccc3c(c2)CC(C(=O)NO)CC3)c1 (centres unmarked) [Compound I-63, 7-{3-[(2,2-dimethylpropanoyl)amino]phenyl}-N-hydroxy-1,2,3,4-tetrahydronaphthalene-2-carboxamide] | 90
O=C(NO)C1CCc2ccc(-c3ccc([N+](=O)[O-])cc3)cc2C1 (centres unmarked) [Compound I-104, N-hydroxy-7-(4-nitrophenyl)-1,2,3,4-tetrahydronaphthalene-2-carboxamide] | 78
O=C(NO)C1CCc2ccc(Nc3cccc(Cl)c3)cc2C1 (centres unmarked) [Compound I-26, 7-[(3-chlorophenyl)amino]-N-hydroxy-1,2,3,4-tetrahydronaphthalene-2-carboxamide] | 71
O=C(NO)C1CCc2ccc(CCc3ccccc3)cc2C1 (centres unmarked) [Compound I-36, N-hydroxy-7-(2-phenylethyl)-1,2,3,4-tetrahydronaphthalene-2-carboxamide] | 37
O=C(NO)C1CCc2ccc(-c3ccc4nonc4c3)cc2C1 (centres unmarked) [Compound I-91, 7-(2,1,3-benzoxadiazol-5-yl)-N-hydroxy-1,2,3,4-tetrahydronaphthalene-2-carboxamide] | 77
CC(C)(C)OC(=O)Nc1ccc(Oc2ccc3c(c2)CC(C(=O)NO)CC3)cc1 (centres unmarked) [Compound I-52, tert-butyl [4-({7-[(hydroxyamino)carbonyl]-5,6,7,8-tetrahydronaphthalen-2-yl}oxy)phenyl]carbamate] | 74
O=C(NO)C1CCc2ccc(-c3ccc4cc[nH]c4c3)cc2C1 (centres unmarked) [Compound I-72, N-hydroxy-7-(1H-indol-6-yl)-1,2,3,4-tetrahydronaphthalene-2-carboxamide] | 87
CN(C)C(=O)c1ccc(-c2ccc3c(c2)CC(C(=O)NO)CC3)cc1F (centres unmarked) [Compound I-108, 7-{4-[(dimethylamino)carbonyl]-3-fluorophenyl}-N-hydroxy-1,2,3,4-tetrahydronaphthalene-2-carboxamide] | 75
COc1ccc(-c2ccc3c(c2)CC(C(=O)NO)CC3)c(C)c1 (centres unmarked) [Compound I-95, N-hydroxy-7-(4-methoxy-2-methylphenyl)-1,2,3,4-tetrahydronaphthalene-2-carboxamide] | 78
O=C(NO)C1CCc2ccc(-c3ccc(N4CCCC4)nc3)cc2C1 (centres unmarked) [Compound I-97, N-hydroxy-7-(6-pyrrolidin-1-ylpyridin-3-yl)-1,2,3,4-tetrahydronaphthalene-2-carboxamide] | 81
O=C(NO)C1CCc2ccc(-c3ccc(F)c(C(=O)N4CCCC4)c3)cc2C1 (centres unmarked) [Compound I-113, 7-[4-fluoro-3-(pyrrolidin-1-ylcarbonyl)phenyl]-N-hydroxy-1,2,3,4-tetrahydronaphthalene-2-carboxamide] | 89
O=C(NO)C1CCc2ccc(-c3cnc4[nH]ccc4c3)cc2C1 (centres unmarked) [Compound I-87, N-hydroxy-7-(1H-pyrrolo[2,3-b]pyridin-5-yl)-1,2,3,4-tetrahydronaphthalene-2-carboxamide] | 85
COc1cccc(-c2ccc3c(c2)CC(C(=O)NO)CC3)c1 (centres unmarked) [Compound I-67, N-hydroxy-7-(3-methoxyphenyl)-1,2,3,4-tetrahydronaphthalene-2-carboxamide] | 81
O=C(NO)C1CCc2ccc(Oc3cccc(NC(=O)C4CC4)c3)cc2C1 (centres unmarked) [Compound I-50, 7-{3-[(cyclopropylcarbonyl)amino]phenoxy}-N-hydroxy-1,2,3,4-tetrahydronaphthalene-2-carboxamide] | 84
